In US12089595B2, “Pseudomonas strains and their metabolites to control plant diseases” (T3 Bioscience, Inc., priority 2020, dated 2024):
In brackets after ≈: the same amount, converted by molar mass. Like-named read-outs stand apart in the source and are kept apart here.

Columns and labels:
E coli O157:H7 = assay: MIC antimicrobial assay (CLSI, 96 well plates); format: cell-based
[1] = tested on: Xanthomonas axonopodis pv. citri N40-SO5; assay: MIC antimicrobial assay (CLSI, 96 well plates); format: cell-based
R. solanacearum K60 = assay: microbe, parasite or virus in culture; format: cell-based; settings: Ralstonia solanacearum, K60, read-out: Diameter of the zone of inhibition
[2] = tested on: Pectobacterium atrosepticum 942; assay: MIC antimicrobial assay (CLSI, 96 well plates); format: cell-based; settings: Pectobacterium atrosepticum 942 (soft rot)
[3] = tested on: Pectobacterium parmentieri UPP163 936; assay: MIC antimicrobial assay (CLSI, 96 well plates); format: cell-based; settings: UPP163936; Pectobacterium parmentieri UPP163 936 (soft rot)
[4] = tested on: Erwinia amylovora DM1 (streptomycin-resistant); assay: microbe, parasite or virus in culture; format: cell-based
Dickeya dadantii 3937 = assay: MIC antimicrobial assay (CLSI, 96 well plates); format: cell-based; settings: Dickeya dadantii 3937 (soft rot)
[5] = tested on: Erwinia amylovora CA11 (streptomycin-resistant); assay: microbe, parasite or virus in culture; format: cell-based
[6] = tested on: Pectobacterium carotovorum subsp. carotovorum wpp14 945; assay: MIC antimicrobial assay (CLSI, 96 well plates); format: cell-based; settings: Pectobacterium carotovorum subsp. carotovorum wpp14 945 (soft rot)
[7] = tested on: Methicillin-resistant staphylococcus aureus USA300; assay: microbe, parasite or virus in culture; format: cell-based
[8] = tested on: Xanthomonas axonopodis pv. citri-Miami XC2002-00010; assay: MIC antimicrobial assay (CLSI, 96 well plates); format: cell-based
[9] = tested on: Xanthomonas campestris pv. Pruni; assay: MIC antimicrobial assay (CLSI, 96 well plates); format: cell-based; settings: Xanthomonas campestris pv. Pruni (Bacterial Spot of Peach)
[10] = tested on: Pseudomonas syringae pv syringae 7046; assay: MIC antimicrobial assay (CLSI, 96 well plates); format: cell-based; settings: Pseudomonas syringae pv syringae 7046 (Bacterial canker or blast)
[11] = tested on: Xanthomonas campestris pv. vesicatoria XV-16; assay: MIC antimicrobial assay (CLSI, 96 well plates); format: cell-based; settings: Xanthomonas campestris pv. vesicatoria XV-16 (Tomato bacterial spot)
[12] = tested on: Clavibacter michiganensis subsp. michiganensis NCPPB382; assay: MIC antimicrobial assay (CLSI, 96 well plates); format: cell-based
Erwinia amylovora 110 = assay: microbe, parasite or virus in culture; format: cell-based
[13] = tested on: Clavibacter michiganensis subsp. michiganensis Cmm 0690; assay: MIC antimicrobial assay (CLSI, 96 well plates); format: cell-based
R. solanacearum Pss = assay: microbe, parasite or virus in culture; format: cell-based; settings: Ralstonia solanacearum, read-out: Diameter of the zone of inhibition
[14] = tested on: Xanthomonas arboricola pv. Juglandis 219; assay: MIC antimicrobial assay (CLSI, 96 well plates); format: cell-based
[15] = tested on: X. arboricola pv. Juglandis Xaj417; assay: microbe, parasite or virus in culture; format: cell-based, Xanthomonas arboricola pv. Juglandis; settings: Xanthomonas arboricola, read-out: Diameter of the zone of inhibition
E. amylovora 110 = assay: Greenhouse blossom blight assay on crabapples trees (RejuAgro A); format: in vivo, Erwinia amylovora
Method: To evaluate the biological control activity of RejuAgro A against Erwinia amylovora, greenhouse infection assay on crabapples trees was conducted at the University of Wisconsin-Milwaukee. Ten μg/mL was supplemented with 1% Polyethylene glycol (PEG) 4000 or 1% PEG4000 (negative control) were applied on full bloom trees flowers 3 hours prior to the inoculation and 24 hours post-inoculation. Approximately 10^8 CFU/mL of E. amylovora 110 strain resuspended in water was used as inoculum. The infection rate was calculated at around day 6 post inoculation. RejuAgro A can effectively suppress the blossom blight (Table 6).

[16] = tested on: Flavobacterium columnare MS-FC-4; assay: MIC antimicrobial assay (CLSI, 96 well plates); format: cell-based; settings: MSFC4; Flavobacterium columnare MS-FC-4 (Fish columnaris disease), SHIEH
Erwinia amylovora 1189 = assay: MIC antimicrobial assay (CLSI, 96 well plates); format: cell-based
E. amylovora = assay: Plate diffusion assay in LB plates; format: cell-based, Erwinia amylovora; settings: 2 mg/mL; for zone of inhibition at 2000 µg/mL: Erwinia amylovora, read-out: Diameter of the Inhibitory zone
Source text: Two assays were used for the antimicrobial test of 0617-T307 cell broth and metabolites. One is plate diffusion assay and the other one is microplate assay. LB plate was used for the plate diffusion assay of the antimicrobial activity of RejuAgro A containing fractions and cell broths against E. amylovora (Table 3).

[17] = tested on: Erwinia amylovora 898 (streptomycin-resistant); assay: microbe, parasite or virus in culture; format: cell-based
[18] = tested on: Pectobacterium carotovorum subsp. brasiliensis 944; assay: MIC antimicrobial assay (CLSI, 96 well plates); format: cell-based; settings: Pectobacterium carotovorum subsp. brasiliensis 944 (soft rot)
[19] = tested on: Pseudomonas syringae pv. lachrymans 1188-1; assay: MIC antimicrobial assay (CLSI, 96 well plates); format: cell-based; settings: Pseudomonas syringae pv. lachrymans 1188-1 (Angular Leaf Spot of Cucurbits)
[20] = tested on: Clavibacter michiganensis subsp. michiganensis Cmm 0317; assay: MIC antimicrobial assay (CLSI, 96 well plates); format: cell-based
[21] = tested on: X. arboricola pv. Juglandis Xaj219; assay: microbe, parasite or virus in culture; format: cell-based, Xanthomonas arboricola pv. Juglandis; settings: Xanthomonas arboricola, read-out: Diameter of the zone of inhibition
[22] = tested on: Pseudomonas soli 0617-T307; assay: MIC antimicrobial assay (CLSI, 96 well plates)
[23] = tested on: Pseudomonas syringae pv. tomato PT30; assay: MIC antimicrobial assay (CLSI, 96 well plates); format: cell-based; settings: Pseudomonas syringae pv. tomato PT30 (Tomato bacterial speck)
[24] = tested on: P. syringae (pv. tomato PT30, pv syringae 7046, pv. lachrymans 1188-1); assay: MIC antimicrobial assay; settings: Pseudomonas syringae
[25] = tested on: Xanthomonas bacteria (Xanthomonas axonopodis pv. citri); assay: MIC antimicrobial assay; format: cell-based
[26] = Staphylococcus aureus, MRSA / USA300

Compound	MIC (E coli O157:H7) [µg/mL]	MIC [1] [µg/mL]	MIC [2] [µg/mL]	MIC [3] [µg/mL]	MIC ([4]; Erwinia amylovora) [µg/mL]	MIC (Dickeya dadantii 3937) [µg/mL]	MIC ([5]; Erwinia amylovora) [µg/mL]	MIC [6] [µg/mL]	MIC [7, 26] [µg/mL]	MIC [8] [µg/mL]	MIC ([9]; read-out: MIC) [µg/mL]	MIC [10] [µg/mL]	MIC [11] [µg/mL]	MIC [12] [µg/mL]	MIC (Erwinia amylovora 110) [µg/mL]	MIC [13] [µg/mL]	MIC [16] [µg/mL]	zone of inhibition at 2000 µg/mL (E. amylovora) [mm]	MIC ([17]; Erwinia amylovora) [µg/mL]	MIC [18] [µg/mL]	further results
CSC1=C(C)C(=O)C(=O)NC1=O [RejuAgro A]	40 (≈ 216 µM)	5 (≈ 27 µM)	20 (≈ 108 µM)	40 (≈ 216 µM)	10 (≈ 54 µM)	40 (≈ 216 µM)	10 (≈ 54 µM)	40 (≈ 216 µM)	> 40	5 (≈ 27 µM)	40 (≈ 216 µM)	20 (≈ 108 µM)	2.5 (≈ 13.5 µM)	6.25 (≈ 33.7 µM)	5 (≈ 27 µM)	12.5 (≈ 67.5 µM)	5 (≈ 27 µM)	11	10 (≈ 54 µM)	40 (≈ 216 µM)	zone of inhibition at 2000 µg/mL (R. solanacearum K60): 4 mm; MIC ([7]; MRSA USA300 (Skin infection, sepsis)): >40 µg/mL; zone of inhibition at 2000 µg/mL (R. solanacearum Pss): 5 mm; MIC ([14]; Xanthomonas arboricola): 6.25 µg/mL (≈ 33.7 µM); zone of inhibition at 2000 µg/mL [15]: 10 mm; Infection rate (E. amylovora 110; 10 μg/mL with 1% PEG4000, 3 hours prior and 24 hours post-inoculation, around day 6, negative control 50.8%): 12.3%; MIC (Erwinia amylovora 1189; Erwinia amylovora, 1189, Erwinia amylovora 1189 (Fire blight on apples/pears)): 5 µg/mL (≈ 27 µM); Diameter of the Inhibitory zone (E. amylovora): showed the antimicrobial activity; MIC [19]: 10 µg/mL (≈ 54 µM); MIC [20]: 1.56 µg/mL (≈ 8.42 µM); zone of inhibition at 2000 µg/mL [21]: 5 mm; MIC ([22]; Pseudomonas soli 0617-T307 (RejuAgro A producer), LB media): >40 µg/mL; MIC ([22]; Pseudomonas soli, 0617T307): > 40 µg/mL; MIC [23]: 40 µg/mL (≈ 216 µM); MIC [24]: 40 µg/mL (≈ 216 µM); MIC [25]: 5 µg/mL (≈ 27 µM)
[H]/N=C(/N)N[C@H]1[C@H](O)[C@@H](O)[C@H](O[C@@H]2O[C@@H](C)[C@](O)(C=O)[C@H]2O[C@@H]2O[C@@H](CO)[C@H](O)[C@@H](O)[C@@H]2NC)[C@@H](N/C(N)=N\[H])[C@@H]1O [Streptomycin, reference compound]	20 (≈ 34.4 µM)	0.16 (≈ 0.275 µM)	20 (≈ 34.4 µM)	40 (≈ 68.8 µM)	> 40	20 (≈ 34.4 µM)	> 40	40 (≈ 68.8 µM)	10 (≈ 17.2 µM)	0.16 (≈ 0.275 µM)	> 40	2.5 (≈ 4.3 µM)	20 (≈ 34.4 µM)	12.5 (≈ 21.5 µM)	5 (≈ 8.6 µM)	12.5 (≈ 21.5 µM)	1.25 (≈ 2.15 µM)	24	> 40	40 (≈ 68.8 µM)	zone of inhibition at 100 µg/mL (R. solanacearum K60): 15 mm; MIC ([4]; Erwinia amylovora DM1, streptomycin-resistant): >40 µg/mL; MIC ([5]; Erwinia amylovora CA11, streptomycin-resistant): >40 µg/mL; MIC [9]: >40 µg/mL; zone of inhibition at 100 µg/mL (R. solanacearum Pss): 15 mm; MIC ([14]; Xanthomonas arboricola pv. Juglandis 219 (walnut blight), read-out: MIC): 0.39 µg/mL (≈ 0.671 µM); zone of inhibition at 100 µg/mL [15]: 19 mm; Infection rate (E. amylovora 110; 200 μg/mL, around day 6 post inoculation): 5.7%; MIC (Erwinia amylovora 1189; Erwinia amylovora 1189 (Fire blight on apples/pears)): 20 µg/mL (≈ 34.4 µM); MIC (Erwinia amylovora 1189; Erwinia amylovora, 1189, Erwinia amylovora 1189 (Fire blight on apples/pears), read-out: MIC): 10 µg/mL (≈ 17.2 µM); MIC ([17]; Erwinia amylovora 898, spontaneous streptomycin-resistant): >40 µg/mL; MIC [19]: 5 µg/mL (≈ 8.6 µM); MIC [20]: 3.12 µg/mL (≈ 5.36 µM); zone of inhibition at 100 µg/mL [21]: 13 mm; MIC ([22]; Pseudomonas soli, 0617T307): > 40 µg/mL; MIC [23]: 2.5 µg/mL (≈ 4.3 µM); MIC [24]: 2.5 to 5 µg/mL (≈ 4.3 to 8.6 µM); MIC [25]: 0.16 µg/mL (≈ 0.275 µM)
